# From PMC9887116, “SDI-118, a novel procognitive SV2A modulator: First-in-human randomized controlled trial including PET/fMRI assessment of target engagement” (Frontiers in Pharmacology, 2023)
# How the values were obtained:
# [1] = food effect on pharmacokinetics, Part C; type: in vivo, human (healthy male subjects); conditions: 10 mg
# Protocol: (§1) Blood samples for PK analysis were taken at regular time-points up to approximately 96 h post-dose in Part A and C. During the study, a protocol amendment was approved to extend the PK sampling scheme to include samples up to approximately 144 h post-dose, starting from the fourth dosing period. The rationale for this amendment was a longer than anticipated terminal elimination half-life of SDI-118 as concluded from preliminary PK data of the first three dosing periods. Plasma concentrations of SDI-118 were assayed using a GLP validated UPLC/MS-MS method. This method is linear for a range of concentrations from 0.200 to 500 ng/ml, with a lower limit of quantification (LLOQ) of 0.200 ng/ml. The following PK parameters were estimated: maximum plasma concentration Cmax, time of maximum plasma concentration Tmax, area under the plasma concentration versus time curve AUC, AUC0-last (up to the last quantifiable concentration Clast), AUCinf (extrapolated to infinity), and apparent terminal elimination half-life t½. Dose proportionality of SDI-118 Cmax, AUC0-last, and AUCinf from Part A was calculated based on a mixed-effect power model. Food effect on SDI-118 Cmax, AUC0-last, and AUCinf from Part C was calculated using a 90% confidence interval (CI) on geometric mean ratios (fed/fasted) based on a mixed-effect analysis of variance (ANOVA) with median difference in Tmax with 90% CI. Major interaction was excluded if the 90% CI on AUC and Cmax ratios (fed/fasted) were within the 50%–200% boundaries. The food effect assessment in Part C was performed on a secondary population, i.e. the PK completers set, which excluded one subject who discontinued the study after one dosing period (cfr. infra).
# [2] = first-in-human single oral dose safety and tolerability (adverse events)
# Protocol: The study consisted of three parts. Part A was a double-blind, placebo-controlled (in a 6:2 SDI-118:placebo ratio), single ascending oral dose study performed in 16 subjects equally divided into two cohorts. […] Dose levels of .3, 1, 3, 10, 30, 60, 90 and 120 mg of SDI-118 were set to be administered in an alternating panel design with a minimum washout period of 7 days between subsequent periods. In each period two different sentinel subjects were dosed (in a 1:1 SDI-118:placebo ratio) and followed-up for safety for at least 48 h before the rest of the cohort received the same dose level of the study drug.
# (§3) Safety and tolerability were assessed by questioning for adverse events (AEs), vital signs measurements (supine and orthostatic), 12-lead ECGs (always acquired in triplicate except during screening and post-study visit), standard lab safety tests on blood and urine samples, and physical and neurological examinations at regular time-points throughout the study.
# SV2C = conditions: relative to SV2A
# From the text: (§2) ([Löscher et al., 2016]). […] ([Lynch et al., 2004]; [Matagne et al., 2008]).
# SV2B = conditions: relative to SV2A
# From the text: as §2
# [3] = 12-lead ECG QT-interval assessment in first-in-human study; type: in vivo, human (healthy male subjects)
# Protocol: as §3
# [4] = tested on: animal models of cognitive deficit; experiment: animal models of cognitive deficit; type: in vivo; conditions: rodents
# From the text: as §2
# [5] = plasma pharmacokinetics, Part A single ascending dose; type: in vivo, human (healthy male subjects)
# Protocol: The study consisted of three parts. […] No stratification was performed.
# as §1
# [6] = all subjects (n = 32), all single doses pooled
# [7] = all subjects (n = 32), only at 80 mg
compound,measurement,setting,value
O=C1C[C@H](c2cc(F)c(F)c(F)c2)CN1Cn1ncnc1Cl [SDI-118],median Tmax,[1]; fasting state,1.5 h
same,median Tmax,[1]; fed state (standardized high fat meal),4.0 h
same,"effect of food on extent of exposure (Cmax, AUC0-last, AUCinf)",[1]; fed vs fasted (n = 8),No clinically relevant effect of food
same,"dizziness, drug related TEAE, number of events",[2]; [6],12 events
same,"dizziness, drug related TEAE, number of subjects",[2]; [6],nine
same,"hypersomnia, drug related TEAE, number of events",[2]; [6],6 events
same,"hypersomnia, drug related TEAE, number of subjects",[2]; [6],five
same,"somnolence, drug related TEAE, number of events",[2]; [7],2 events
same,"somnolence, drug related TEAE, number of subjects",[2]; [7],two
same,All drug related TEAEs: N (%) (number of subjects),[2]; single oral dose 1 mg (N=8),1 (12.5) N (%)
same,All drug related TEAEs: No. (number of observations),[2]; single oral dose 1 mg (N=8),1
same,"Headache, drug related TEAE: N (%) (number of subjects)",[2]; single oral dose 1 mg (N=8),1 (12.5) N (%)
same,"Headache, drug related TEAE: No. (number of observations)",[2]; single oral dose 1 mg (N=8),1
same,"Nervous System Disorders, drug related TEAEs: N (%) (number of subjects)",[2]; single oral dose 1 mg (N=8),1 (12.5) N (%)
same,"Nervous System Disorders, drug related TEAEs: No. (number of observations)",[2]; single oral dose 1 mg (N=8),1
same,All drug related TEAEs: N (%) (number of subjects),[2]; single oral dose 3 mg (N=6),1 (16.7) N (%)
same,All drug related TEAEs: No. (number of observations),[2]; single oral dose 3 mg (N=6),1
same,"Cardiac Disorders, drug related TEAEs: N (%) (number of subjects)",[2]; single oral dose 3 mg (N=6),1 (16.7) N (%)
same,"Cardiac Disorders, drug related TEAEs: No. (number of observations)",[2]; single oral dose 3 mg (N=6),1
same,"Postural Dizziness, drug related TEAE: N (%) (number of subjects)",[2]; single oral dose 3 mg (N=6),1 (16.7) N (%)
same,"Postural Dizziness, drug related TEAE: No. (number of observations)",[2]; single oral dose 3 mg (N=6),1
same,All drug related TEAEs: N (%) (number of subjects),[2]; single oral dose 10 mg (N=16),4 (66.7) N (%)
same,All drug related TEAEs: No. (number of observations),[2]; single oral dose 10 mg (N=16),5
same,"Blurred vision, drug related TEAE: N (%) (number of subjects)",[2]; single oral dose 10 mg (N=16),1 (16.7) N (%)
same,"Blurred vision, drug related TEAE: No. (number of observations)",[2]; single oral dose 10 mg (N=16),1
same,"Dizziness, drug related TEAE: N (%) (number of subjects)",[2]; single oral dose 10 mg (N=16),1 (16.7) N (%)
same,"Dizziness, drug related TEAE: No. (number of observations)",[2]; single oral dose 10 mg (N=16),1
same,"Eye Disorders, drug related TEAEs: N (%) (number of subjects)",[2]; single oral dose 10 mg (N=16),1 (16.7) N (%)
same,"Eye Disorders, drug related TEAEs: No. (number of observations)",[2]; single oral dose 10 mg (N=16),1
same,"Fatigue, drug related TEAE: N (%) (number of subjects)",[2]; single oral dose 10 mg (N=16),1 (16.7) N (%)
same,"Fatigue, drug related TEAE: No. (number of observations)",[2]; single oral dose 10 mg (N=16),1
same,"General Disorders, drug related TEAEs: N (%) (number of subjects)",[2]; single oral dose 10 mg (N=16),1 (16.7) N (%)
same,"General Disorders, drug related TEAEs: No. (number of observations)",[2]; single oral dose 10 mg (N=16),1
same,"Hypersomnia, drug related TEAE: N (%) (number of subjects)",[2]; single oral dose 10 mg (N=16),2 (33.3) N (%)
same,"Hypersomnia, drug related TEAE: No. (number of observations)",[2]; single oral dose 10 mg (N=16),2
same,"Nervous System Disorders, drug related TEAEs: N (%) (number of subjects)",[2]; single oral dose 10 mg (N=16),3 (50.0) N (%)
same,"Nervous System Disorders, drug related TEAEs: No. (number of observations)",[2]; single oral dose 10 mg (N=16),3
same,All drug related TEAEs: N (%) (number of subjects),[2]; single oral dose 20 mg (N=8),4 (50.0) N (%)
same,All drug related TEAEs: No. (number of observations),[2]; single oral dose 20 mg (N=8),4
same,"Dizziness, drug related TEAE: N (%) (number of subjects)",[2]; single oral dose 20 mg (N=8),4 (50.0) N (%)
same,"Dizziness, drug related TEAE: No. (number of observations)",[2]; single oral dose 20 mg (N=8),4
same,"Nervous System Disorders, drug related TEAEs: N (%) (number of subjects)",[2]; single oral dose 20 mg (N=8),4 (50.0) N (%)
same,"Nervous System Disorders, drug related TEAEs: No. (number of observations)",[2]; single oral dose 20 mg (N=8),4
same,All drug related TEAEs: N (%) (number of subjects),[2]; single oral dose 40 mg (N=6),3 (50.0) N (%)
same,All drug related TEAEs: No. (number of observations),[2]; single oral dose 40 mg (N=6),4
same,"Dizziness, drug related TEAE: N (%) (number of subjects)",[2]; single oral dose 40 mg (N=6),3 (50.0) N (%)
same,"Dizziness, drug related TEAE: No. (number of observations)",[2]; single oral dose 40 mg (N=6),3
same,"Hypersomnia, drug related TEAE: N (%) (number of subjects)",[2]; single oral dose 40 mg (N=6),1 (16.7) N (%)
same,"Hypersomnia, drug related TEAE: No. (number of observations)",[2]; single oral dose 40 mg (N=6),1
same,"Nervous System Disorders, drug related TEAEs: N (%) (number of subjects)",[2]; single oral dose 40 mg (N=6),3 (50.0) N (%)
same,"Nervous System Disorders, drug related TEAEs: No. (number of observations)",[2]; single oral dose 40 mg (N=6),4
same,All drug related TEAEs: N (%) (number of subjects),[2]; single oral dose 60 mg (N=6),3 (50.0) N (%)
same,All drug related TEAEs: No. (number of observations),[2]; single oral dose 60 mg (N=6),4
same,"Cardiac Disorders, drug related TEAEs: N (%) (number of subjects)",[2]; single oral dose 60 mg (N=6),1 (16.7) N (%)
same,"Cardiac Disorders, drug related TEAEs: No. (number of observations)",[2]; single oral dose 60 mg (N=6),1
same,"Dizziness, drug related TEAE: N (%) (number of subjects)",[2]; single oral dose 60 mg (N=6),2 (33.3) N (%)
same,"Dizziness, drug related TEAE: No. (number of observations)",[2]; single oral dose 60 mg (N=6),2
same,"Hypersomnia, drug related TEAE: N (%) (number of subjects)",[2]; single oral dose 60 mg (N=6),1 (16.7) N (%)
same,"Hypersomnia, drug related TEAE: No. (number of observations)",[2]; single oral dose 60 mg (N=6),1
same,"Nervous System Disorders, drug related TEAEs: N (%) (number of subjects)",[2]; single oral dose 60 mg (N=6),2 (33.3) N (%)
same,"Nervous System Disorders, drug related TEAEs: No. (number of observations)",[2]; single oral dose 60 mg (N=6),3
same,"Postural Dizziness, drug related TEAE: N (%) (number of subjects)",[2]; single oral dose 60 mg (N=6),1 (16.7) N (%)
same,"Postural Dizziness, drug related TEAE: No. (number of observations)",[2]; single oral dose 60 mg (N=6),1
same,All drug related TEAEs: N (%) (number of subjects),[2]; single oral dose 80 mg (N=6),4 (66.7) N (%)
same,All drug related TEAEs: No. (number of observations),[2]; single oral dose 80 mg (N=6),8
same,"Dizziness, drug related TEAE: N (%) (number of subjects)",[2]; single oral dose 80 mg (N=6),2 (33.3) N (%)
same,"Dizziness, drug related TEAE: No. (number of observations)",[2]; single oral dose 80 mg (N=6),2
same,"Headache, drug related TEAE: N (%) (number of subjects)",[2]; single oral dose 80 mg (N=6),1 (16.7) N (%)
same,"Headache, drug related TEAE: No. (number of observations)",[2]; single oral dose 80 mg (N=6),1
same,"Hypersomnia, drug related TEAE: N (%) (number of subjects)",[2]; single oral dose 80 mg (N=6),2 (33.3) N (%)
same,"Hypersomnia, drug related TEAE: No. (number of observations)",[2]; single oral dose 80 mg (N=6),2
same,"Irritability, drug related TEAE: N (%) (number of subjects)",[2]; single oral dose 80 mg (N=6),1 (16.7) N (%)
same,"Irritability, drug related TEAE: No. (number of observations)",[2]; single oral dose 80 mg (N=6),1
same,"Nervous System Disorders, drug related TEAEs: N (%) (number of subjects)",[2]; single oral dose 80 mg (N=6),4 (66.7) N (%)
same,"Nervous System Disorders, drug related TEAEs: No. (number of observations)",[2]; single oral dose 80 mg (N=6),7
same,"Psychiatric Disorders, drug related TEAEs: N (%) (number of subjects)",[2]; single oral dose 80 mg (N=6),1 (16.7) N (%)
same,"Psychiatric Disorders, drug related TEAEs: No. (number of observations)",[2]; single oral dose 80 mg (N=6),1
same,"Somnolence, drug related TEAE: N (%) (number of subjects)",[2]; single oral dose 80 mg (N=6),2 (33.3) N (%)
same,"Somnolence, drug related TEAE: No. (number of observations)",[2]; single oral dose 80 mg (N=6),2
same,intensity of drug related TEAEs,[2]; single oral doses 0.3-80 mg,mild in intensity
same,neurological examination,[2]; single oral doses 0.3-80 mg,No abnormalities were found
same,serious adverse events (SAEs),[2]; single oral doses 0.3-80 mg,no serious adverse events
same,safety and tolerability of single oral dose,"[2]; up to 80 mg, healthy male subjects",safe and well tolerated
same,selectivity over SV2C,SV2C,over 100 fold
same,selectivity over SV2B,SV2B,over 1000 fold
same,largest observed mean increase from baseline QTcF,[3]; 12 h post-dose at 60 mg,+6.1 ms
same,"single QT-interval value, any subject",[3]; no subject above this value,≤ 500 ms
same,"single corrected QT-interval Fridericia (QTcF) value, any subject",[3]; no subject above this value,≤ 450 ms
same,QT-interval prolongation,[3]; single oral doses 0.3-80 mg,no QT-interval prolongations were observed
same,cognitive effects in animal models of cognitive deficit,[4],showed cognitive enhancing effects
same,geometric mean AUCinf,[5]; 0.3 mg single oral dose,120 ng·h/mL
same,geometric mean Cmax,[5]; 0.3 mg single oral dose,3.42 ng/mL
same,geometric mean AUCinf,[5]; 80 mg single oral dose,"25,500 ng*h/mL"
same,geometric mean Cmax,[5]; 80 mg single oral dose,854 ng/mL
same,deviation from dose proportionality for Cmax,"[5]; 0.3-80 mg, mixed-effect power model",approximately 5%
same,dose proportionality based on AUC0-last and AUCinf,[5]; entire dose range 0.3-80 mg,dose-proportional
same,median Tmax,"[5]; oral capsule, fasting condition",1.5 h
